Source: ChEMBL document CHEMBL4507264, “Data for DCP probe BAY-7598” (2021)

Columns and labels:
[1] = target: Casein kinase I isoform alpha-like (Homo sapiens) (UniProt Q8N752); details: Compound concentration 1000.0 nM
[2] = target: Serine/threonine-protein kinase NLK (Homo sapiens) (UniProt Q9UBE8); details: Compound concentration 1000.0 nM
[3] = target: Serine/threonine-protein kinase TAO1 (Homo sapiens) (UniProt Q7L7X3); details: Compound concentration 1000.0 nM
[4] = system: Receptor-type tyrosine-protein kinase FLT3 (Homo sapiens), P36888 [D835Y]; details: Compound concentration 1000.0 nM
[5] = target: Ephrin type-A receptor 3 (Homo sapiens) (UniProt P29320); details: Compound concentration 1000.0 nM
[6] = target: Dual serine/threonine and tyrosine protein kinase (Homo sapiens) (UniProt Q6XUX3); details: Compound concentration 1000.0 nM
[7] = target: Serine/threonine-protein kinase PLK4 (Homo sapiens) (UniProt O00444); details: Compound concentration 1000.0 nM
[8] = target: Serine/threonine-protein kinase PknB (Mycobacterium tuberculosis) (UniProt P9WI81); details: Compound concentration 1000.0 nM
[9] = target: Serine/threonine-protein kinase tousled-like 2 (Homo sapiens) (UniProt Q86UE8); details: Compound concentration 1000.0 nM
[10] = target: Mitogen-activated protein kinase kinase kinase 19 (Homo sapiens) (UniProt Q56UN5); details: Compound concentration 1000.0 nM
[11] = target: Mitogen-activated protein kinase 3 (Homo sapiens) (UniProt P27361); details: Compound concentration 1000.0 nM
[12] = target: Serine/threonine-protein kinase 38 (Homo sapiens) (UniProt Q15208); details: Compound concentration 1000.0 nM
Serine/threonine-protein kinase 38 (Homo sapiens), sequence (Q15208 2-465 limits assumed): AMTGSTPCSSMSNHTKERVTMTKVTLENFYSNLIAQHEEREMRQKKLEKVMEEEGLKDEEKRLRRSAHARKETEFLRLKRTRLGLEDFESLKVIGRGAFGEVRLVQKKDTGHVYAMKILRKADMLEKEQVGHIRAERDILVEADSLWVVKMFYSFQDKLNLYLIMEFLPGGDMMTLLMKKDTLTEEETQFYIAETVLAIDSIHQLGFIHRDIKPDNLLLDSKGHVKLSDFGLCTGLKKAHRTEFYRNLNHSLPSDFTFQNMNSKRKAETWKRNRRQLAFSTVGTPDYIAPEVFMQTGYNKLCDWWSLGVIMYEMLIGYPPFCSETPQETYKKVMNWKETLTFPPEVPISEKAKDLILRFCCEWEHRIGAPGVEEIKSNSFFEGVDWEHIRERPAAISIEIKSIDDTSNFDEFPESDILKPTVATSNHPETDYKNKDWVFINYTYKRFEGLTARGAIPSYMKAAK

[13] = target: Mitogen-activated protein kinase 9 (Homo sapiens) (UniProt P45984); details: Compound concentration 1000.0 nM
Mitogen-activated protein kinase 9 (Homo sapiens), sequence (P45984 whole entry, looked up): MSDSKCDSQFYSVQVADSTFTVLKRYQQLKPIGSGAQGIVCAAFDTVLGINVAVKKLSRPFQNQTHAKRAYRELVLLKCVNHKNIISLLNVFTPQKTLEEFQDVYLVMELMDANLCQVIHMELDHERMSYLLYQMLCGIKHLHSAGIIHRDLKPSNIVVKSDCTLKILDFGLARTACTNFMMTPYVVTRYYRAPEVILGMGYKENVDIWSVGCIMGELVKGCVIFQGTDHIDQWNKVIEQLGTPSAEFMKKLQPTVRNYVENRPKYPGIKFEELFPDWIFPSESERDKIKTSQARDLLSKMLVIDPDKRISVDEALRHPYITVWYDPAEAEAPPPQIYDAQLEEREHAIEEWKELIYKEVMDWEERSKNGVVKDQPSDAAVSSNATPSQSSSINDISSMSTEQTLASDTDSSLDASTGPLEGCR

[14] = target: Myosin light chain kinase, smooth muscle (Homo sapiens) (UniProt Q15746); details: Compound concentration 1000.0 nM
[15] = system: Receptor-type tyrosine-protein kinase FLT3 (Homo sapiens), P36888 [R834Q]; details: Compound concentration 1000.0 nM
[16] = target: Serine/threonine-protein kinase Chk2 (Homo sapiens) (UniProt O96017); details: Compound concentration 1000.0 nM
[17] = target: Dual specificity mitogen-activated protein kinase kinase 7 (Homo sapiens) (UniProt O14733); details: Compound concentration 1000.0 nM
[18] = target: Serine/threonine-protein kinase ULK2 (Homo sapiens) (UniProt Q8IYT8); details: Compound concentration 1000.0 nM
[19] = target: MAP/microtubule affinity-regulating kinase 4 (Homo sapiens) (UniProt Q96L34); details: Compound concentration 1000.0 nM
MAP/microtubule affinity-regulating kinase 4 (Homo sapiens), sequence (Q96L34 whole entry): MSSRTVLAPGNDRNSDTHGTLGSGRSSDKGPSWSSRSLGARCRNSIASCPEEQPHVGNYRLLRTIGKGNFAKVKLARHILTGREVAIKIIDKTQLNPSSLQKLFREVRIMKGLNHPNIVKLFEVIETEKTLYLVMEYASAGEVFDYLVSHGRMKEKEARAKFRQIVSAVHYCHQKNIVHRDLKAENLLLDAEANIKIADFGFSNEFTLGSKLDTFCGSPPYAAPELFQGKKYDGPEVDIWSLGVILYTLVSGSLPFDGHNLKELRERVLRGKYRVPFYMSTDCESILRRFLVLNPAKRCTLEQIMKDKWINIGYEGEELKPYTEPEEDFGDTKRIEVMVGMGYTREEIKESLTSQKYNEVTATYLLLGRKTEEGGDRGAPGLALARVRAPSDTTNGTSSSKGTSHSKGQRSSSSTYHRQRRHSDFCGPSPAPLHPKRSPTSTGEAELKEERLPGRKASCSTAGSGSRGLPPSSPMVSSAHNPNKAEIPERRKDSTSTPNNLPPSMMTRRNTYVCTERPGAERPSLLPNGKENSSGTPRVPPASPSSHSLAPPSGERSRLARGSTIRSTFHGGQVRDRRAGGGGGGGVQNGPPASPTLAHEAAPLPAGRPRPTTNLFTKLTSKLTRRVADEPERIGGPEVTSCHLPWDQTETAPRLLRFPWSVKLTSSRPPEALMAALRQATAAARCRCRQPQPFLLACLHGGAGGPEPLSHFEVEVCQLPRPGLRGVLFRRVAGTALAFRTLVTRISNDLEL

[20] = target: Macrophage colony-stimulating factor 1 receptor (Homo sapiens) (UniProt P07333); details: Compound concentration 1000.0 nM
[21] = target: Ankyrin repeat and protein kinase domain-containing protein 1 (Homo sapiens) (UniProt Q8NFD2); details: Compound concentration 1000.0 nM
[22] = target: Cyclin-dependent kinase 9 (Homo sapiens) (UniProt P50750); details: Compound concentration 1000.0 nM
[23] = target: GABA-A receptor; anion channel (Rattus norvegicus) (UniProt O09028+P15431+P18506+P18508+P19969+P20236+P23574+P23576+P28471+P28473+P30191+P62813+P63079+P63138+Q91ZM7+Q9ES14); details: Compound concentration 10.0 uM
[24] = target: Calcium/calmodulin-dependent protein kinase type II subunit beta (Homo sapiens) (UniProt Q13554); details: Compound concentration 1000.0 nM
[25] = target: Phosphatidylinositol 4,5-bisphosphate 3-kinase catalytic subunit delta isoform (Homo sapiens) (UniProt O00329); details: Compound concentration 1000.0 nM
[26] = target: Citron Rho-interacting kinase (Homo sapiens) (UniProt O14578); details: Compound concentration 1000.0 nM
[27] = target: Receptor-interacting serine/threonine-protein kinase 2 (Homo sapiens) (UniProt O43353); details: Compound concentration 1000.0 nM
Receptor-interacting serine/threonine-protein kinase 2 (Homo sapiens), sequence (O43353 whole entry): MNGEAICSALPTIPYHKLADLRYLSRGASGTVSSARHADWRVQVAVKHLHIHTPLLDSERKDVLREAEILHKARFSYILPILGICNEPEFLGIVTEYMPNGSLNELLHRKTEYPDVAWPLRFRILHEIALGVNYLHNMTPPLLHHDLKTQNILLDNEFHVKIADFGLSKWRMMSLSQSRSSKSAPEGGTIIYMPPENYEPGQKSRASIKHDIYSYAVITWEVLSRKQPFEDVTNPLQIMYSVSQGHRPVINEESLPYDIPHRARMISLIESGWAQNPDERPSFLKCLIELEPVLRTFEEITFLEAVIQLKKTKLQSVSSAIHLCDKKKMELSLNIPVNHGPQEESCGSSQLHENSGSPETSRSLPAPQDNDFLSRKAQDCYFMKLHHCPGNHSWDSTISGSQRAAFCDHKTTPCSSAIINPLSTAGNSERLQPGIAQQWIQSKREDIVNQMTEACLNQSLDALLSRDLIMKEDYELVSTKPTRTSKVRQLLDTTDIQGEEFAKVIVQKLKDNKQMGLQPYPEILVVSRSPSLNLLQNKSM

[28] = target: Serine/threonine-protein kinase Nek1 (Homo sapiens) (UniProt Q96PY6); details: Compound concentration 1000.0 nM
[29] = target: RAC-alpha serine/threonine-protein kinase (Homo sapiens) (UniProt P31749); details: Compound concentration 1000.0 nM
[30] = target: Cyclin-dependent kinase 11A (Homo sapiens) (UniProt Q9UQ88); details: Compound concentration 1000.0 nM
[31] = target: Cyclin-G-associated kinase (Homo sapiens) (UniProt O14976); details: Compound concentration 1000.0 nM
[32] = system: Epidermal growth factor receptor (Homo sapiens), P00533 [UNDEFINED MUTATION]; details: Compound concentration 1000.0 nM
[33] = system: Phosphatidylinositol 4,5-bisphosphate 3-kinase catalytic subunit alpha isoform (Homo sapiens), P42336 [C420R]; details: Compound concentration 1000.0 nM
[34] = system: Proto-oncogene tyrosine-protein kinase receptor Ret (Homo sapiens), P07949 [M918T]; details: Compound concentration 1000.0 nM
Proto-oncogene tyrosine-protein kinase receptor Ret (Homo sapiens), P07949 [M918T], sequence (P07949 whole entry M918T): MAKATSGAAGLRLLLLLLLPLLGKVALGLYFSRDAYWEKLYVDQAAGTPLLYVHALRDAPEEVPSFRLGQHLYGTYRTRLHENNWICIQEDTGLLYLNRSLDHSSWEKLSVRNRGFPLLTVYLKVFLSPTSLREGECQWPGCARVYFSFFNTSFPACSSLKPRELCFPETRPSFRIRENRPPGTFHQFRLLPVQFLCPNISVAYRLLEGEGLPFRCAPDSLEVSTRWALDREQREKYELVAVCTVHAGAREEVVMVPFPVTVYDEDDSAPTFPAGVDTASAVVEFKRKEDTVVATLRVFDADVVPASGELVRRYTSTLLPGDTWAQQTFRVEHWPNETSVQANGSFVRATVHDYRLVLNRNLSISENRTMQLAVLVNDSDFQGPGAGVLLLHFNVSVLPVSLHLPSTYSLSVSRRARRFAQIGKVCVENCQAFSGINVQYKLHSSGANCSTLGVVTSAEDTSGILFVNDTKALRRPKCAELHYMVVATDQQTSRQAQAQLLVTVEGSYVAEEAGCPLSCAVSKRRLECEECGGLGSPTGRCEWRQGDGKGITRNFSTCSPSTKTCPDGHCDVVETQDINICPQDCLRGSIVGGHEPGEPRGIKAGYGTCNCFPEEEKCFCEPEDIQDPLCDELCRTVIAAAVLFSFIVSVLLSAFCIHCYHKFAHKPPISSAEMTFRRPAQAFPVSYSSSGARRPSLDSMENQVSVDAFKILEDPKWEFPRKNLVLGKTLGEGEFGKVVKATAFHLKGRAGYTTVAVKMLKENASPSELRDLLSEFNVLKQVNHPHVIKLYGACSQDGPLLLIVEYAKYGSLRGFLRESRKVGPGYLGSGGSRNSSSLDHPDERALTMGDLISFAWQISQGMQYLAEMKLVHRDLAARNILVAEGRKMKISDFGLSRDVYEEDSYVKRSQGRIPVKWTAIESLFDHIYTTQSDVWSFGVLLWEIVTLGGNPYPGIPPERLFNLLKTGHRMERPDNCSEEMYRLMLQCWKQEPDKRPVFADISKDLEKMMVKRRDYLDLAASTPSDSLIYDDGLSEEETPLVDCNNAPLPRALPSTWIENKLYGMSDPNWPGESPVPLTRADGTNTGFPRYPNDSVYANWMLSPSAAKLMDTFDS

[35] = system: Epidermal growth factor receptor (Homo sapiens), P00533 [G719S]; details: Compound concentration 1000.0 nM
[36] = target: Tyrosine-protein kinase HCK (Homo sapiens) (UniProt P08631); details: Compound concentration 1000.0 nM
[37] = target: Phosphatidylinositol 3-kinase catalytic subunit type 3 (Homo sapiens) (UniProt Q8NEB9); details: Compound concentration 1000.0 nM
[38] = system: Epidermal growth factor receptor (Homo sapiens), P00533 [L858R,T790M]; details: Compound concentration 1000.0 nM
[39] = target: Tyrosine-protein kinase TXK (Homo sapiens) (UniProt P42681); details: Compound concentration 1000.0 nM
Tyrosine-protein kinase TXK (Homo sapiens), sequence (P42681 whole entry): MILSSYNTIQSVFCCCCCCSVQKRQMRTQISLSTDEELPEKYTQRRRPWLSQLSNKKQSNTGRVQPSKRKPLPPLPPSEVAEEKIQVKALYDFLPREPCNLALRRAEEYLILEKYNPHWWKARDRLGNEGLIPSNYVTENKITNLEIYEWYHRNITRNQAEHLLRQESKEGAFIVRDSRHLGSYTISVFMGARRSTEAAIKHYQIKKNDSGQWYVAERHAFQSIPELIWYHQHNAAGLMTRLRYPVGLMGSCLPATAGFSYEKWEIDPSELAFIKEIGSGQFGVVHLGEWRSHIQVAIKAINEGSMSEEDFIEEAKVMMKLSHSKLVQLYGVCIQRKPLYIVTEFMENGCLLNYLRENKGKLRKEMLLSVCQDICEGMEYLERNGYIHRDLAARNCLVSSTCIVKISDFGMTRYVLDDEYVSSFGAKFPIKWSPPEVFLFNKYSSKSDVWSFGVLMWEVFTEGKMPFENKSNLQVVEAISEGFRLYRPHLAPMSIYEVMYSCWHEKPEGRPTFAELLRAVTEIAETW

[40] = system: Receptor-type tyrosine-protein kinase FLT3 (Homo sapiens), P36888 [D835V]; details: Compound concentration 1000.0 nM
[41] = target: Receptor-interacting serine/threonine-protein kinase 1 (Homo sapiens) (UniProt Q13546); details: Compound concentration 1000.0 nM
[42] = target: cGMP-dependent protein kinase 1 (Homo sapiens) (UniProt Q13976); details: Compound concentration 1000.0 nM
[43] = target: Ephrin type-B receptor 4 (Homo sapiens) (UniProt P54760); details: Compound concentration 1000.0 nM
Ephrin type-B receptor 4 (Homo sapiens), sequence (P54760 whole entry): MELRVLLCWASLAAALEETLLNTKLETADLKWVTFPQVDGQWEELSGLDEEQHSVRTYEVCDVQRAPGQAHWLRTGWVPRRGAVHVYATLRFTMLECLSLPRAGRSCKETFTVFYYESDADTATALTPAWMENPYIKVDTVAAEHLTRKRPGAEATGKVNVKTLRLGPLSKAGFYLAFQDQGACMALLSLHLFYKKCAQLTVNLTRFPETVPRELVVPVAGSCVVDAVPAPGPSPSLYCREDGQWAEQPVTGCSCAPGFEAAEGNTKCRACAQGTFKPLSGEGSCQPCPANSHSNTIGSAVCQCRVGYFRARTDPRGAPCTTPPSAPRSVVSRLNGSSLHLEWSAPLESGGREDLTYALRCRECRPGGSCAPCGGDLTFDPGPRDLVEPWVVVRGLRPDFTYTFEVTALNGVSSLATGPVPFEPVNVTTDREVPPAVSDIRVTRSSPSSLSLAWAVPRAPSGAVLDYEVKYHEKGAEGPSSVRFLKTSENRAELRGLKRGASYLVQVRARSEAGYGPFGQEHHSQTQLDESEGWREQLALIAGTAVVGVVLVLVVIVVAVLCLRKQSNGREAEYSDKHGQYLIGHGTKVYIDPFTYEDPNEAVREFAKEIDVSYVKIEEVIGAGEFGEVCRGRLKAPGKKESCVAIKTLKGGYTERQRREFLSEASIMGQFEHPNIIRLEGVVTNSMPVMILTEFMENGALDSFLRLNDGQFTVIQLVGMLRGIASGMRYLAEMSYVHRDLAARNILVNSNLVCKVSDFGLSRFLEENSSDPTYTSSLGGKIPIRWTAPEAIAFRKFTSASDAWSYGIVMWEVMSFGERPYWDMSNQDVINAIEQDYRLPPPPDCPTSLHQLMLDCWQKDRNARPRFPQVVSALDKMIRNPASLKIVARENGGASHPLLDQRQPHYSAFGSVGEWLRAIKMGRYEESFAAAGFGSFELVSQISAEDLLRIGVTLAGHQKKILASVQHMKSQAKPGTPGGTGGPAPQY

O=C(O)[C@@H]1[C@@H](Cn2nnc3ccccc3c2=O)CC[C@H]1C(=O)c1ccc(OCCC2CCOCC2)cc1 [BAY-694]
inactive: residual activity [1] 100% | residual activity [2] 86% | residual activity [3] 100% | residual activity [4] 100% | residual activity [5] 100% | residual activity [6] 84% | residual activity [7] 83% | residual activity [8] 94% | residual activity [9] 93% | residual activity [10] 84% | residual activity [11] 100% | residual activity [12] 95% | residual activity [13] 100% | residual activity [14] 100% | residual activity [15] 100% | residual activity [16] 100% | residual activity [17] 89% | residual activity [18] 90% | residual activity [19] 100% | residual activity [20] 94% | residual activity [21] 100% | residual activity [22] 100% | inhibition [23] 13.1% | residual activity [24] 100% | residual activity [25] 99% | residual activity [26] 92% | residual activity [27] 97% | residual activity [28] 100% | residual activity [29] 75% | residual activity [30] 91% | residual activity [31] 91% | residual activity [32] 95% | residual activity [33] 100% | residual activity [34] 100% | residual activity [35] 88% | residual activity [36] 100% | residual activity [37] 96% | residual activity [38] 76% | residual activity [39] 94% | residual activity [40] 93% | residual activity [41] 100% | residual activity [42] 100% | residual activity [43] 100%

O=C(O)[C@H]1[C@H](Cn2nnc3ccccc3c2=O)CC[C@@H]1C(=O)c1ccc(OCCC2CCOCC2)cc1 [BAY-7598]
inactive: residual activity [1] 100% | residual activity [2] 100% | residual activity [3] 100% | residual activity [4] 96% | residual activity [5] 88% | residual activity [6] 100% | residual activity [7] 97% | residual activity [8] 77% | residual activity [9] 98% | residual activity [10] 78% | residual activity [11] 94% | residual activity [12] 88% | residual activity [13] 79% | residual activity [14] 74% | residual activity [15] 96% | residual activity [16] 100% | residual activity [17] 96% | residual activity [18] 100% | residual activity [19] 96% | residual activity [20] 100% | residual activity [21] 100% | residual activity [22] 72% | inhibition [23] 6.48% | residual activity [24] 100% | residual activity [25] 89% | residual activity [26] 77% | residual activity [27] 100% | residual activity [28] 82% | residual activity [29] 83% | residual activity [30] 92% | residual activity [31] 100% | residual activity [32] 80% | residual activity [33] 100% | residual activity [34] 76% | residual activity [35] 87% | residual activity [36] 70% | residual activity [37] 93% | residual activity [38] 64% | residual activity [39] 100% | residual activity [40] 92% | residual activity [41] 84% | residual activity [42] 75% | residual activity [43] 96%
